The test system of test [1] is Hs578T (human triple negative breast cancer cell line). As to the kind of experiment: CellTiter-Glo Luminescent Cell Viability, combined administration of docetaxel (Experimental Example 3). Format: cell-based.
Procedure: 10 μM of Fexuprazan and 1 μM of Doxorubicin were administered singly and in combination, respectively. As a comparative group, 10 μM of Vonoprazan was administered singly or in combination with Doxorubicin. At this time, 0.1% DMSO was used as a solvent for each composition. Further, 0.1% DMSO was used as a vehicle control. Each experimental group was repeated twice. Plates treated with the compound at respective concentrations were incubated in a 5% CO2 incubator at 37° C. for 48 hours. […] The reaction was performed at room temperature in a dark room for 10 minutes, and luminescence was measured using a Flexstation3 multi-mode microplate reader. The luciferase enzyme activity, representing the amount of ATP, was measured by a chemiluminescence method according to CellTiter-Glo® Luminescent Cell Viability instructions, and the inhibitory activity was calculated. […]
Hs578T (human triple negative breast cancer cell line) was incubated in a 96 well clear bottom plate and then stabilized for 24 hours. […] After incubating in a 5% CO2 incubator at 37° C. for 48 hours, the luciferase enzyme activity, representing the amount of ATP, was measured by a chemiluminescence method according to CellTiter-Glo® Luminescent Cell Viability instructions, and the inhibitory activity was calculated. The respective results were analyzed using Microsoft Excel, and significance was confirmed through an unpaired t test in Graphpad Prism software.
For test [2], the system named is Hs578T (human triple-negative breast cancer cell line). As to the kind of experiment: CellTiter-Glo Luminescent Cell Viability, combined administration of Doxorubicin (Experimental Example 1). Format: cell-based. Particulars: for antitumor effect in combination with Doxorubicin compared to administration alone / synergistic effect with Doxorubicin: 10 μM with 1 μM Doxorubicin, Table 1 and FIG. 1; for viability at 10 µM: single agent 10.0 μM, no Doxorubicin. The method, then:
(§1) In order to confirm the anticancer efficacy when Fexuprazan and Doxorubicin were administered in combination, cell proliferation was measured for Hs578T (human triple-negative breast cancer cell line) by a CellTiter-Glo® Luminescent Cell Viability (Promega, Catalog #G7571) method. The above evaluation was performed by a method in which when the luciferase enzyme was activated by ATP leaked from living cells, it reacted with a luciferin substrate, and the enzyme activity at this time was measured to confirm the cell viability.
(§2) Specifically, 100 μL of cell culture medium (RPMI medium, 10% FBS, 1% P/S, 4.5 g/L D-Glucose, 2.383 g/L HEPES Buffer, L-Glutamine, 1.5 g/L Sodium Bicarbonate, 110 mg/L Sodium pyruvate) was used and each cancer cell line was prepared in a white clear-bottom 96-well microplate. 10 μM of Fexuprazan and 1 μM of Doxorubicin were administered singly and in combination, respectively. As a comparative group, 10 μM of Vonoprazan was administered singly or in combination with Doxorubicin. At this time, 0.1% DMSO was used as a solvent for each composition. Further, 0.1% DMSO was used as a vehicle control. Each experimental group was repeated twice. Plates treated with the compound at respective concentrations were incubated in a 5% CO2 incubator at 37° C. for 48 hours. 100 μL/well of the substrate aqueous solution containing luciferin was added to a white clear-bottom 96 well microplate to initiate the enzymatic reaction. The reaction was performed at room temperature in a dark room for 10 minutes, and luminescence was measured using a Flexstation3 multi-mode microplate reader. The luciferase enzyme activity, representing the amount of ATP, was measured by a chemiluminescence method according to CellTiter-Glo® Luminescent Cell Viability instructions, and the inhibitory activity was calculated. The results of each compound were analyzed using Microsoft Excel. Compound concentrations were converted into logarithmic values using GraphPad Prism software and expressed on the graph.

Test [3] relates to Hs578T cell line. Nature of the test: CellTiter-Glo Luminescent Cell Viability, optimal molar ratio for combination use with Doxorubicin (Experimental Example 2). Format: cell-based, human. The method, then: as §1
as §2, with “Further, 0.1% DMSO was used as a vehicle control. Each experimental group was repeated twice. Plates treated with the compound at respective concentrations were incubated in a 5% CO2 incubator at 37° C. for 48 hours. 100 μL/well of the substrate aqueous solution containing luciferin was added to a white clear-bottom 96 well microplate to initiate the enzymatic reaction.” left out, “Compound concentrations were converted into logarithmic values using GraphPad Prism software and expressed on the graph.” left out
In order to confirm the optimal combination ratio of Fexuprazan to Doxorubicin, cell proliferation was measured using a CellTiter-Glo® Luminescent Cell Viability (Promega, Catalog #G7571) method in the same manner as in Experimental Example 1. […] The cells were incubated in a 5% CO2 incubator at 37° C. for 48 hours, the luciferase enzyme activity, representing the amount of ATP, was measured by a chemiluminescence method according to CellTiter-Glo® Luminescent Cell Viability instructions, and the inhibitory activity of the compound according to this purpose was calculated. […]
In general terms: ATP-based viability assays read luminescence as a measure of living cells.

The mark [4] stands for this setting: Homo sapiens, Hs-578T, 48 hours, read-out: Relative cell viability (%).
[5] abbreviates: Homo sapiens, Hs-578T, Doxorubicin 1.0 μM alone, 48 hours, read-out: Relative cell viability (%).

From patent US20250152555A1, “Pharmaceutical Composition for Preventing or Treating Triple-Negative Breast Cancer” (Daewoong Pharmaceutical Co., Ltd., priority 2021, published 2025) come the findings set out here.

SMILES strings stand for the structures.

For the molecule `CC(=O)O[C@@]12CO[C@@H]1C[C@H](O)[C@@]1(C)C(=O)[C@H](O)C3=C(C)[C@@H](OC(=O)[C@H](O)[C@@H](NC(=O)OC(C)(C)C)c4ccccc4)C[C@@](O)([C@@H](OC(=O)c4ccccc4)[C@H]21)C3(C)C` [Docetaxel, docetaxel], the viability at 0.001 µM in test [1] (Homo sapiens, Hs-578T, Docetaxel 1.0 nM alone, 48 hours, read-out: Relative cell viability (%)) worked out at 88.3%. Further, the viability at 0.01 µM in test [1] (Homo sapiens, Hs-578T, Docetaxel 10.0 nM alone, 48 hours, read-out: Relative cell viability (%)) worked out at 49.3%. For the same molecule, the “synergistic effect on the antitumor effect relative to Esomeprazole” value in test [1] (docetaxel 1 nM and 10 nM combined with 10 μM Fexuprazan, Table 3 and FIG. 4) is on record as “synergistic effect”.
Regarding `CNCc1cc(-c2ccccc2F)n(S(=O)(=O)c2cccnc2)c1` [Vonoprazan], the “antitumor effect in combination with Doxorubicin compared to administration alone / synergistic effect with Doxorubicin” value in test [2] is given as “no synergistic effect”. Besides, the viability at 10 µM in test [2] (setting [4]) amounted to 92.3%.
With `COc1cccc2c1C(=O)c1c(O)c3c(c(O)c1C2=O)C[C@@](O)(C(=O)CO)C[C@@H]3O[C@H]1C[C@H](N)[C@H](O)[C@H](C)O1` [Doxorubicin], the viability at 1 µM in test [2] (setting [5]) worked out at 70.6%; in test [3] (setting [5]), 50%.
Take `CNCc1cn(S(=O)(=O)c2cccc(F)c2)c(-c2ccc(F)cc2F)c1OC` [Fexuprazan, 1-(5-(2,4-difluorophenyl)-1-((3-fluorophenyl)sulfonyl)-4-methoxy-1H-pyrrol-3-yl)-N-methylmethanamine]: in test [2], the “antitumor effect in combination with Doxorubicin compared to administration alone / synergistic effect with Doxorubicin” value was “superior antitumor effect”. Also, the viability at 10 µM in test [2] (setting [4]) was 100%. The “synergistic effect with Doxorubicin, compared to the combined effect of Esomeprazole” value was “synergistic effects” in test [3] (molar ratio of Doxorubicin and Fexuprazan 1:5 or more); “especially superior” in test [3] (molar ratios of Doxorubicin and Fexuprazan 1:10 or more).

By viability is commonly meant a read-out of living cells in per cent, often relative to untreated cells.
